Measured values published in patent US9844546B2, “Antibody against human HIF hydroxylase” (OXFORD UNIVERSITY INNOVATION LIMITED, priority 2001, dated 2017).
Where two headings read alike, the source gives them in different places. *1 amine or outer side, *2 acyl side, *3 side chain or, on linkers, in order; H or OH if unused. Where a SMILES comes first, the peptide text is derived from it. Bridges are numbered along the chain shown (N, C = ends). Roman numbers before positions name the chains, in order. [ ]: non-standard residue; d: D form. Actinocin(9to1) = Cc1c2oc3c(C)ccc(C(=O)[*:1])c3nc-2c(C(=O)[*:2])c(N)c1=O; NMeV = CN[C@H](C(=O)O)C(C)C; Sar = CNCC(=O)O

Legend:
HIF-α/pVHL interaction = assay: Interaction of HIF-1α and pVHL.HA reticulocyte IVTTs, anti-HA co-immunoprecipitation; format: biochemical, human; conditions: 100 μM added to the HIF-1α IVTT
Method: ^35S-Methionine labelled […] subunits and pVHL.HA were produced separately by IVTT (in vitro transcription and translation) in reticulocyte lysates. IVTTs were performed under different conditions, mixed, and assayed for interaction by anti-HA co-immunoprecipitation. These in vitro assays allowed analysis of the HIFα/pVHL interaction using the recombinant proteins.
Labelled HIF-1α and pVHL.HA were generated separately in reticulocyte lysates (IVTT), in the presence or absence of Co (II), desferrioxamine, or Fe(II). Lysates were mixed in various combinations, and interactions assayed by anti-HA immunoprecipitation.
• 1. G. L. Semenza, Genes Dev 14, 1983-91. (2000). • 2. N. V. Iyer, et al., Genes Dev. 12, 149-162 (1997). • 3. E. Maltepe, J. V. Schmidt, D. Baunoch, C. A. Bradfield, M. C. Simon, Nature 386, 403-407 (1997). • 4. G. L. Wang, B.-H. Jiang, E. A. Rue, G. L. Semenza, Proc. Natl. Acad. Sci. USA 92, 5510-5514 (1995). • 5. S. Salceda, J. Caro, J. Biol. Chem. 272, 22642-22647 (1997). • 6. L. E. Huang, J. Gu, M. Schau, H. F. Bunn, Proc. Natl. Acad. Sci. USA 95, 7987-7992 (1998). • 7. M. S. Wiesener, et al., Blood 92, 2260-2268 (1998). • 8. P. H. Maxwell, et al., Nature 399, 271-275 (1999). • 9. K. Iwai, et al., Proc. Natl. Acad. Sci. USA 96, 12436-12441 (1999). • 10. J. Lisztwan, G. Imbert, C. Wirbelauer, M. Gstaiger, W. Krek, Genes Dev 13, 1822-33 (1999). • 11. M. E. Cockman, et al., J Biol Chem (2000). • 12. M. Ohh, et al., Nat Cell Biol 2, 423-7. (2000). • 13. T. Kamura, et al., Proc Natl Acad Sci USA 97, 10430-5. (2000). • 14. K. Tanimoto, Y. Makino, T. Pereira, L. Poellinger, Embo J 19, 4298-309. (2000). • 15. M. A. Goldberg, S. P. Dunning, H. F. Bunn, Science 242, 1412-1415 (1988). • 16. G. L. Wang, G. L. Semenza, Blood 82, 3610-3615 (1993). • 17. G. L. Semenza, Cell 98, 281-284 (1999). • 18. Hypoxia (<0.1% oxygen) was obtained in a workstation with O2, CO2 and temperature control (Ruskinn Technologies, Leeds, UK). For hypoxic harvest, buffers were preincubated in the chamber overnight. […]

[1] = test system: rat SM-20 and human EGLN1 (PHD2), EGLN2 (PHD1), EGLN3 (PHD3); assay: Recombinant enzymes (reticulocyte IVTT) promoting pVHL interaction with HIF-1α residues 549-582; format: biochemical; conditions: all enzymes
Method: To test the role of these gene products in regulating the interaction between human HIFα sub-units and the VHL E3 ligase complex, we first produced the proteins by reticulocyte IVTT. […] After incubation with relevant enzyme, HIF-α substrates were mixed with extracts from 786-0/VHL cells that stably express HA tagged human pVHL, and tested for interaction by anti-HA immunoprecipitation.

EGLN-2 and EGLN-3 = assay: Modification and pVHL binding assay with reticulocyte lysate programmed with EGLN-2 or EGLN-3; format: biochemical, human; conditions: desferrioxamine 200 μM, cobaltous chloride 200 μM
Text: Protein containing HIF-1 sequence (amino acids 549-582) was generated in a reticulocyte in vitro transcription translation reaction in the presence of 100 micromolar desferrioxamine, retrieved and then exposed to […] translates containing the putative enzymes as described above. These proteins contain the critical proline (564) which can be modified by hydroxylation and which enables recognition by von Hippel Lindau tumour suppressor protein (pVHL).
The modification of the HIF-1 sequence was assayed by the binding of the HIF-1 to radiolabelled pVHL, generated by in vitro transcription and translation of a pcDNA3 vector containing the human wild type pVHL open reading frame in a rabbit reticulocyte lysate in the presence of ^35S-methionine.
Modification and pVHL binding assays were performed as described above. Rabbit reticulocyte lysate was programmed with pcDNA3 based plasmids containing no insert, an insert encoding the full open reading frame of the human homologue of C. elegans Egl-9 known as EGLN-2, or an insert encoding the full open reading frame of the human homologue known as EGLN-3. Modification was performed in the absence of additives, in the presence of oxalylglycine, oxalylglycine plus 2-oxoglutarate, 200 μM desferrioxamine or 200 μM cobaltous chloride.

EGL-9 = assay: Recombinant EGL-9 modification of HIF-1, HA.VHL-1 capture; format: biochemical, C. elegans
Method: Preincubation of C. elegans HIF-1 with worm extract or recombinant EGL-9 was for 30 min at 25° C. Preincubation of mammalian HIF-α polypeptides with cell extract or recombinant enzymes was at 37° C. for 10-30 min unless otherwise stated. For assays of recombinant enzymes, 2-oxoglutarate (2 mM), iron (100 μM), and ascorbate (2 mM) were added to the reaction buffer unless otherwise indicated. Reactions performed in hypoxia were in the stated atmospheric oxygen concentration (balance nitrogen) obtained using a controlled environment Invivo2 400 hypoxia work-station (Ruskinn Technologies) and buffers pre-equilibrated with the appropriate atmosphere. Reactions (50 μl) were performed in open Eppendorf tubes with mixing and stopped by the addition of 20 volumes desferrioxamine (100 μM}.
To test whether EGL-9 could act directly on HIF-1, further preparations were made by baculoviral expression in insect cells and by expression as maltose binding protein ([…]) fusion proteins in E. coli. Since full length MBP/EGL-9 protein was insoluble when expressed in E. coli we prepared an N-terminal truncation containing residues 359-723 (MBP/ΔN.EGL-9) that preserved the predicted catalytic domain and had HIF.1 modifying activity when expressed as an IVTT. […]

[2] = test system: collagen prolyl-hydroxylase (CPH); conditions: cited from earlier work
[3] = test system: HIF-α prolyl-hydroxylase (HIF-PH) of cell extract; assay: Modifying activity (HIF-PH) of cell extract on HIF substrate (Gal/HIF-1α549-582/VP16 or 19:WT), pVHL capture assay; format: biochemical, mammalian
Outline: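 Immunopurified HIF-1α substrate (19:WT polypeptide or Gal/HIF-1α549-582/VP16) on beads was incubated with cell extract under test conditions, washed, and tested for capture of 35S-labelled IVTT pVHL, visualised by fluorography. Hydroxylation activity was inferred from pVHL capture.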

[4] = test system: HIF hydroxylase (HPH activity); assay: HIF hydroxylase (HPH) inhibition, statements of the description; format: biochemical
intact cells = assay: Entry into intact cells; format: cell-based
Text: In this Example it is shown that HIF-1α protein and the endogenous HIF target gene encoding carbonic anhydrase 9 (CA-9) are induced by exposure of cells to the PHD inhibitor, dimethyl oxalylglycine. […] The esterified form, dimethyloxalylglycine, has therefore been used to deliver the compound to tissue culture cells.
Application of an esterified form, dimethyloxalylglycine, to tissue culture cells results in stabilisation of HIF alpha chains (Example 1) and activation of transcription of endogenous HIF target genes (Example 5).

HeLa cells = assay: Hypoxic induction of total HIF-PH activity in HeLa cell lysates, pVHL capture assay; format: cell-based, human; conditions: hypoxia 16 hours

[Cl-].[Cl-].[Co+2] [Co(II), cobaltous chloride]
capture of HIF-1α by pVHL.HA (HIF-α/pVHL interaction): greatly diminished capture
inhibition of enzyme activity promoting pVHL interaction with HIF-1α 549-582 [1]: strongly inhibited
Enzyme activity (modification of HIF-1 to VHL binding form) (EGLN-2 and EGLN-3): diminished
effect on recombinant EGL-9 activity (EGL-9): direct inhibition

O=C(O)CNC(=O)C(=O)O [N-oxalylglycine]
inhibition of enzyme activity promoting pVHL interaction with HIF-1α 549-582 [1]: strongly inhibited
Enzyme activity (modification of HIF-1 to VHL binding form) (EGLN-2 and EGLN-3): diminished
inhibition of CPH [2]: inhibitor
Inhibition of pVHL capture ([3]; 0-2000 μM inhibitor, RCC4 cell extract, 5 or 100 μM FeCl2): increased with the concentration of inhibitor
inhibition of modifying activity of cell extract on 19:WT (pVHL capture) ([3]; N-oxalylglycine 0.2-1 mM, overcome by 5 mM 2-oxoglutarate): completely inhibit
inhibition of HIF hydroxylase / HPH [4]: act as inhibitors
inhibition of HIF hydroxylase / HPH ([4]; listed as N-oxaloglycine): inhibitor
ability to enter intact cells (intact cells): incapable of entering intact cells

Cc1c2oc3c(C)ccc(C(=O)N[C@@H]4C(=O)N[C@H](C(C)C)C(=O)N5CCC[C@H]5C(=O)N(C)CC(=O)N(C)[C@@H](C(C)C)C(=O)O[C@@H]4C)c3nc-2c(C(=O)N[C@@H]2C(=O)N[C@H](C(C)C)C(=O)N3CCC[C@H]3C(=O)N(C)CC(=O)N(C)[C@@H](C(C)C)C(=O)O[C@@H]2C)c(N)c1=O [actinomycin D] (I: T[dV]P[Sar][NMeV] / II: T[dV]P[Sar][NMeV]; ester I:1-I:C, II:1-II:C; linker I:N-II:N via Actinocin(9to1))
effect on induction of total HIF-PH activity by hypoxia (HeLa cells): blocked
